# Tested on: B16 cells gene expression
# Test: RNA-Seq (DEGs, GSEA, heatmaps) of B16 cells
# Details: B16 cells, KTC 0.2μM
# [1] = GSEA gene set HALLMARK_PI3K_AKT_MTOR_SIGNALING
# [2] = GSEA gene set HALLMARK_PROTEIN_SECRETION
# [3] = GSEA gene set HALLMARK_REACTIVE_OXIGEN_SPECIES_PATHWAY
# [4] = GSEA gene set HALLMARK_SPERMATOGENESIS
# [5] = GSEA gene set HALLMARK_TGF_BETA_SIGNALING
# [6] = GSEA gene set HALLMARK_TNFA_SIGNALING_VIA_NFKB
# [7] = GSEA gene set HALLMARK_UNFOLDED_PROTEIN_RESPONSE
# [8] = GSEA gene set HALLMARK_UV_RESPONSE_DN
# [9] = GSEA gene set HALLMARK_UV_RESPONSE_UP
# [10] = GSEA gene set HALLMARK_WNT_BETA_CATENIN_SIGNALING
# [11] = GSEA gene set HALLMARK_XENOBIOTIC_METABOLISM
smiles,measurement,setting,value
"COc1cc(N)cc2c1nc(C(F)F)n2-c1nc(N2CCCOCC2)nc(N2CCOCC2)n1 [KTC1101, 2-(difluoromethyl)-4-methoxy-1-(4-morpholino-6-(1,4-oxazepan-4-yl)-1,3,5-triazin-2-yl)-1H-benzo[d]imidazol-6-amine]",enrichmentScore,GSEA gene set HALLMARK_PEROXISOME,-0.395
same,NES,[1],-2.189
same,enrichmentScore,[1],-0.5044
same,NES,[2],-1.203
same,enrichmentScore,[2],-0.2769
same,NES,[3],-1.95
same,enrichmentScore,[3],-0.5432
same,NES,[4],-1.401
same,enrichmentScore,[4],-0.3536
same,NES,[5],1.944
same,enrichmentScore,[5],0.6123
same,NES,[6],2.211
same,enrichmentScore,[6],0.5723
same,NES,[7],-1.548
same,enrichmentScore,[7],-0.347
same,NES,[8],1.23
same,enrichmentScore,[8],0.3315
same,NES,[9],1.315
same,enrichmentScore,[9],0.3557
same,NES,[10],0.901
same,enrichmentScore,[10],0.3071
same,NES,[11],-1.2042
same,enrichmentScore,[11],-0.2641
same,NES: Glycolysis / Gluconeogenesis,GSEA KEGG mmu00010,-1.905
same,enrichmentScore: Glycolysis / Gluconeogenesis,GSEA KEGG mmu00010,-0.5183
same,NES: Citrate cycle (TCA cycle),GSEA KEGG mmu00020,-1.91
same,enrichmentScore: Citrate cycle (TCA cycle),GSEA KEGG mmu00020,-0.5694
same,NES: Pentose phosphate pathway,GSEA KEGG mmu00030,-1.779
same,enrichmentScore: Pentose phosphate pathway,GSEA KEGG mmu00030,-0.5767
same,NES: Fructose and mannose metabolism,GSEA KEGG mmu00051,-1.345
same,enrichmentScore: Fructose and mannose metabolism,GSEA KEGG mmu00051,-0.4104
same,NES: Galactose metabolism,GSEA KEGG mmu00052,-1.484
same,enrichmentScore: Galactose metabolism,GSEA KEGG mmu00052,-0.4712
same,NES: Oxidative phosphorylation,GSEA KEGG mmu00190,-2.112
same,enrichmentScore: Oxidative phosphorylation,GSEA KEGG mmu00190,-0.4855
same,NES: Purine metabolism,GSEA KEGG mmu00230,1.524
same,enrichmentScore: Purine metabolism,GSEA KEGG mmu00230,0.4484
same,NES: Pyrimidine metabolism,GSEA KEGG mmu00240,-1.587
same,enrichmentScore: Pyrimidine metabolism,GSEA KEGG mmu00240,-0.5015
same,"NES: Alanine, aspartate and glutamate metabolism",GSEA KEGG mmu00250,-1.481
same,"enrichmentScore: Alanine, aspartate and glutamate metabolism",GSEA KEGG mmu00250,-0.506
same,"NES: Glycine, serine and threonine metabolism",GSEA KEGG mmu00260,-2.025
same,"enrichmentScore: Glycine, serine and threonine metabolism",GSEA KEGG mmu00260,-0.643
same,NES: Cysteine and methionine metabolism,GSEA KEGG mmu00270,-1.68
same,enrichmentScore: Cysteine and methionine metabolism,GSEA KEGG mmu00270,-0.4743
same,"NES: Valine, leucine and isoleucine degradation",GSEA KEGG mmu00280,-1.453
same,"enrichmentScore: Valine, leucine and isoleucine degradation",GSEA KEGG mmu00280,-0.399
same,NES: Arginine and proline metabolism,GSEA KEGG mmu00330,-1.547
same,enrichmentScore: Arginine and proline metabolism,GSEA KEGG mmu00330,-0.474
same,NES: Glutathione metabolism,GSEA KEGG mmu00480,-1.885
same,enrichmentScore: Glutathione metabolism,GSEA KEGG mmu00480,-0.5172
same,NES: Amino sugar and nucleotide sugar metabolism,GSEA KEGG mmu00520,-1.225
same,enrichmentScore: Amino sugar and nucleotide sugar metabolism,GSEA KEGG mmu00520,-0.3367
same,NES: Glycerolipid metabolism,GSEA KEGG mmu00561,-1.232
same,enrichmentScore: Glycerolipid metabolism,GSEA KEGG mmu00561,-0.3383
same,NES: Ether lipid metabolism,GSEA KEGG mmu00565,-1.318
same,enrichmentScore: Ether lipid metabolism,GSEA KEGG mmu00565,-0.4355
same,NES: Pyruvate metabolism,GSEA KEGG mmu00620,-1.8611
same,enrichmentScore: Pyruvate metabolism,GSEA KEGG mmu00620,-0.5447
same,NES: Glyoxylate and dicarboxylate metabolism,GSEA KEGG mmu00630,-2.109
same,enrichmentScore: Glyoxylate and dicarboxylate metabolism,GSEA KEGG mmu00630,-0.6578
same,NES: Propanoate metabolism,GSEA KEGG mmu00640,-1.418
same,enrichmentScore: Propanoate metabolism,GSEA KEGG mmu00640,-0.4326
same,NES: Terpenoid backbone biosynthesis,GSEA KEGG mmu00900,-2.318
same,enrichmentScore: Terpenoid backbone biosynthesis,GSEA KEGG mmu00900,-0.7921
same,NES: Drug metabolism - other enzymes,GSEA KEGG mmu00983,-1.978
same,enrichmentScore: Drug metabolism - other enzymes,GSEA KEGG mmu00983,-0.5867
same,NES: Carbon metabolism,GSEA KEGG mmu01200,-2.129
same,enrichmentScore: Carbon metabolism,GSEA KEGG mmu01200,-0.4924
same,NES: 2-Oxocarboxylic acid metabolism,GSEA KEGG mmu01210,-1.574
same,enrichmentScore: 2-Oxocarboxylic acid metabolism,GSEA KEGG mmu01210,-0.4801
same,NES: Fatty acid metabolism,GSEA KEGG mmu01212,-1.192
same,enrichmentScore: Fatty acid metabolism,GSEA KEGG mmu01212,-0.3243
same,NES: Biosynthesis of amino acids,GSEA KEGG mmu01230,-2.742
same,enrichmentScore: Biosynthesis of amino acids,GSEA KEGG mmu01230,-0.7082
same,NES: Nucleotide metabolism,GSEA KEGG mmu01232,-1.799
same,enrichmentScore: Nucleotide metabolism,GSEA KEGG mmu01232,-0.4975
same,NES: Biosynthesis of cofactors,GSEA KEGG mmu01240,-1.22
same,enrichmentScore: Biosynthesis of cofactors,GSEA KEGG mmu01240,-0.2823
same,NES: EGFR tyrosine kinase inhibitor resistance,GSEA KEGG mmu01521,1.545
same,enrichmentScore: EGFR tyrosine kinase inhibitor resistance,GSEA KEGG mmu01521,0.4546
